# In patent US12077503B2, “Substituted cyclic amides and their use as herbicides” (FMC CORPORATION, priority 2015, dated 2024):
# Assays:
# Type in all cases: in vivo
# [1] = tested on: Galium (catchweed bedstraw, Galium aparine); assay: Test A postemergence; conditions: Galium, post-emergence, 240 h, Postemergence, read-out: Galium plant response rating (0 to 100 scale); for pest or weed control at 125 g/ha: 125 g ai/ha, visual rating about 10 d after treatment; for pest or weed control at 31 g/ha: 31 g ai/ha, 0 is no effect, 100 is complete control
# Summary of the method: (§1)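 Compounds were formulated in a non-phytotoxic solvent mixture with surfactant and applied as a preemergence directed soil spray after seeding, or sprayed postemergence over plants 2 to 10 cm tall at the one- to two-leaf stage. Evaluation after about 10 d compared treated with untreated controls, using a scale from 0 (no effect) to 100 (complete control).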
# [2] = tested on: barnyardgrass (Echinochloa crus-galli); assay: Test A postemergence; conditions: Echinochloa crus-galli, post-emergence, 240 h, Postemergence; for pest or weed control at 125 g/ha: 125 g ai/ha, visual rating about 10 d after treatment, read-out: Barnyardgrass plant response rating (0 to 100 scale, 0 no effect, 100 complete control); for pest or weed control at 31 g/ha: 31 g ai/ha, 0 is no effect, 100 is complete control, read-out: Barnyardgrass plant response rating (0 to 100 scale)
# Summary of the method: as §1
# [3] = tested on: ragweed (common ragweed, Ambrosia elatior); assay: Test A postemergence; conditions: Ambrosia artemisiifolia, post-emergence, 240 h, Postemergence, read-out: Ragweed plant response rating (0 to 100 scale); for pest or weed control at 125 g/ha: 125 g ai/ha, visual rating about 10 d after treatment; for pest or weed control at 31 g/ha: 31 g ai/ha, 0 is no effect, 100 is complete control
# Summary of the method: as §1
# [4] = tested on: pigweed (Amaranthus retroflexus); assay: Test A postemergence; conditions: Amaranthus retroflexus, post-emergence, 240 h, Postemergence, read-out: Pigweed plant response rating (0 to 100 scale); for pest or weed control at 125 g/ha: 125 g ai/ha, visual rating about 10 d after treatment; for pest or weed control at 31 g/ha: 31 g ai/ha, 0 is no effect, 100 is complete control
# Summary of the method: as §1
# Kochia (Kochia scoparia) [5] = assay: Test A postemergence; conditions: Bassia scoparia, post-emergence, 240 h, Postemergence, read-out: Kochia plant response rating (0 to 100 scale); for pest or weed control at 125 g/ha: 125 g ai/ha, visual rating about 10 d after treatment; for pest or weed control at 31 g/ha: 31 g ai/ha, 0 is no effect, 100 is complete control
# Summary of the method: as §1
# [6] = tested on: blackgrass (Alopecurus myosuroides); assay: Test A postemergence; conditions: Alopecurus myosuroides, post-emergence, 240 h, Postemergence, read-out: Blackgrass plant response rating (0 to 100 scale); for pest or weed control at 125 g/ha: 125 g ai/ha, visual rating about 10 d after treatment; for pest or weed control at 31 g/ha: 31 g ai/ha, 0 is no effect, 100 is complete control
# Summary of the method: as §1
# corn (Zea mays) = assay: Test A postemergence; conditions: Zea mays, post-emergence, 240 h, Postemergence, read-out: Corn plant response rating (0 to 100 scale); for plant injury at 125 g/ha: 125 g ai/ha, visual rating about 10 d after treatment; for plant injury at 31 g/ha: 31 g ai/ha, 0 is no effect, 100 is complete control
# Summary of the method: as §1
# [7] = tested on: giant foxtail (Setaria faberii); assay: Test A postemergence; conditions: Setaria faberi, post-emergence, 240 h, Postemergence, read-out: Foxtail, Giant plant response rating (0 to 100 scale); for pest or weed control at 125 g/ha: 125 g ai/ha, visual rating about 10 d after treatment; for pest or weed control at 31 g/ha: 31 g ai/ha, 0 is no effect, 100 is complete control
# Summary of the method: as §1
# [8] = tested on: wheat (Triticum aestivum); assay: Test A postemergence; conditions: Triticum aestivum, post-emergence, 240 h, Postemergence, read-out: Wheat plant response rating (0 to 100 scale); for plant injury at 125 g/ha: 125 g ai/ha, visual rating about 10 d after treatment; for plant injury at 31 g/ha: 31 g ai/ha, 0 is no effect, 100 is complete control
# Summary of the method: as §1
# [9] = tested on: ryegrass, Italian (Italian ryegrass, Lolium multiflorum); assay: Test A postemergence; conditions: Lolium multiflorum, post-emergence, 240 h, Postemergence, read-out: Ryegrass, Italian plant response rating (0 to 100 scale); for pest or weed control at 125 g/ha: 125 g ai/ha, visual rating about 10 d after treatment; for pest or weed control at 31 g/ha: 31 g ai/ha, 0 is no effect, 100 is complete control
# Summary of the method: as §1
# [10] = tested on: barnyardgrass (Echinochloa crus-galli); assay: Test B flooded paddy test; conditions: Echinochloa crus-galli, 250 g ai/ha, Flood; 0 to 100 scale where 0 is no effect and 100 is complete control; read-out: Barnyardgrass plant response rating
# Summary of the method: (§2)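 2-leaf plants; pots flooded 3 cm over soil; cpd added to paddy water; depth held; greenhouse 13–15 d; visual rating vs controls, 0 = no effect, 100 = complete control.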
# [11] = tested on: sedge, umbrella (small-flower umbrella sedge, Cyperus difformis); assay: Test B flooded paddy test; conditions: Cyperus difformis, 250 g ai/ha, Flood; 0 to 100 scale where 0 is no effect and 100 is complete control; read-out: Sedge, Umbrella plant response rating
# Summary of the method: as §2
# rice (Oryra sativa) = assay: Test B flooded paddy test; conditions: Oryza sativa, 250 g ai/ha, Flood; 0 to 100 scale where 0 is no effect and 100 is complete control; read-out: Rice plant response rating
# Summary of the method: as §2
# [12] = tested on: ducksalad (Heteranthera limosa); assay: Test B flooded paddy test; conditions: Heteranthera limosa, 250 g ai/ha, Flood; 0 to 100 scale where 0 is no effect and 100 is complete control; read-out: Ducksalad plant response rating
# Summary of the method: as §2
# [13] = tested on: barnyardgrass (Echinochloa crus-galli); assay: Test A preemergence; conditions: Echinochloa crus-galli, pre-emergence, 240 h, 0 to 100 scale where 0 is no effect and 100 is complete control, read-out: Barnyardgrass plant response rating; for pest or weed control at 31 g/ha: 31 g ai/ha, Preemergence; for pest or weed control at 125 g/ha: 125 g ai/ha, preemergence, visual injury rating, approximately 10 d
# Summary of the method: as §1
# [14] = tested on: ragweed (common ragweed, Ambrosia elatior); assay: Test A preemergence; conditions: Ambrosia artemisiifolia, pre-emergence, 240 h, 0 to 100 scale where 0 is no effect and 100 is complete control, read-out: Ragweed plant response rating; for pest or weed control at 31 g/ha: 31 g ai/ha, Preemergence; for pest or weed control at 125 g/ha: 125 g ai/ha, preemergence, visual injury rating, approximately 10 d
# Summary of the method: as §1
# [15] = tested on: pigweed (Amaranthus retroflexus); assay: Test A preemergence; conditions: Amaranthus retroflexus, pre-emergence, 240 h, 0 to 100 scale where 0 is no effect and 100 is complete control, read-out: Pigweed plant response rating; for pest or weed control at 31 g/ha: 31 g ai/ha, Preemergence; for pest or weed control at 125 g/ha: 125 g ai/ha, preemergence, visual injury rating, approximately 10 d
# Kochia (Kochia scoparia) [16] = assay: Test A preemergence; conditions: Bassia scoparia, pre-emergence, 240 h, 0 to 100 scale where 0 is no effect and 100 is complete control, read-out: Kochia plant response rating; for pest or weed control at 31 g/ha: 31 g ai/ha, Preemergence; for pest or weed control at 125 g/ha: 125 g ai/ha, preemergence, visual injury rating, approximately 10 d
# Summary of the method: as §1
# [17] = tested on: giant foxtail (Setaria faberii); assay: Test A preemergence; conditions: Setaria faberi, pre-emergence, 240 h, 0 to 100 scale where 0 is no effect and 100 is complete control, read-out: Foxtail, Giant plant response rating; for pest or weed control at 31 g/ha: 31 g ai/ha, Preemergence; for pest or weed control at 125 g/ha: 125 g ai/ha, preemergence, visual injury rating, approximately 10 d
# Summary of the method: as §1
# [18] = tested on: ryegrass, Italian (Italian ryegrass, Lolium multiflorum); assay: Test A preemergence; conditions: Lolium multiflorum, pre-emergence, 240 h, 0 to 100 scale where 0 is no effect and 100 is complete control, read-out: Ryegrass, Italian plant response rating; for pest or weed control at 31 g/ha: 31 g ai/ha, Preemergence; for pest or weed control at 125 g/ha: 125 g ai/ha, preemergence, visual injury rating, approximately 10 d
# Summary of the method: as §1
SMILES,pest or weed control at 125 g/ha [1],pest or weed control at 31 g/ha [1],pest or weed control at 125 g/ha [2],pest or weed control at 31 g/ha [2],pest or weed control at 125 g/ha [3],pest or weed control at 31 g/ha [3],pest or weed control at 125 g/ha [4],pest or weed control at 31 g/ha [4],pest or weed control at 125 g/ha (Kochia (Kochia scoparia) [5]),pest or weed control at 31 g/ha (Kochia (Kochia scoparia) [5]),pest or weed control at 125 g/ha [6],pest or weed control at 31 g/ha [6],plant injury at 125 g/ha (corn (Zea mays)),plant injury at 31 g/ha (corn (Zea mays)),pest or weed control at 125 g/ha [7],pest or weed control at 31 g/ha [7],plant injury at 125 g/ha [8],plant injury at 31 g/ha [8],pest or weed control at 125 g/ha [9],pest or weed control at 31 g/ha [9],also measured
CN1C[C@H](c2cc(Cl)cc(Cl)c2)[C@@H](C(=O)Nc2ccccc2F)C1=O [Compound 1269],60%,0%,90%,90%,0%,0%,30%,0%,40%,0%,40%,0%,80%,0%,80%,60%,60%,0%,30%,0%,pest or weed control at 250 g/ha [10]: 60%; pest or weed control at 250 g/ha [11]: 0%; pest or weed control at 250 g/ha (rice (Oryra sativa)): 0%; pest or weed control at 250 g/ha [12]: 90%; pest or weed control at 31 g/ha [13]: 70%; pest or weed control at 125 g/ha [13]: 90%; pest or weed control at 31 g/ha [14]: 0%; pest or weed control at 125 g/ha [14]: 0%; pest or weed control at 31 g/ha [15]: 0%; pest or weed control at 125 g/ha [15]: 0%; pest or weed control at 31 g/ha (Kochia (Kochia scoparia) [16]): 0%; pest or weed control at 125 g/ha (Kochia (Kochia scoparia) [16]): 50%; pest or weed control at 31 g/ha [17]: 90%; pest or weed control at 125 g/ha [17]: 90%; pest or weed control at 31 g/ha [18]: 0%; pest or weed control at 125 g/ha [18]: 30%
CN1C[C@H](c2cccc(C(F)(F)F)c2)[C@@H](C(=O)Nc2ccccc2-n2cncn2)C1=O [Compound 1289],0%,0%,0%,0%,0%,0%,0%,0%,0%,0%,0%,0%,0%,0%,0%,0%,0%,0%,0%,0%,pest or weed control at 250 g/ha [10]: 0%; pest or weed control at 250 g/ha [11]: 0%; pest or weed control at 250 g/ha (rice (Oryra sativa)): 0%; pest or weed control at 250 g/ha [12]: 0%; pest or weed control at 31 g/ha [13]: 20%; pest or weed control at 125 g/ha [13]: 30%; pest or weed control at 31 g/ha [14]: 0%; pest or weed control at 125 g/ha [14]: 0%; pest or weed control at 31 g/ha [15]: 0%; pest or weed control at 125 g/ha [15]: 0%; pest or weed control at 31 g/ha (Kochia (Kochia scoparia) [16]): 0%; pest or weed control at 125 g/ha (Kochia (Kochia scoparia) [16]): 0%; pest or weed control at 31 g/ha [17]: 50%; pest or weed control at 125 g/ha [17]: 50%; pest or weed control at 31 g/ha [18]: 0%; pest or weed control at 125 g/ha [18]: 0%
